Data on 14 molecules can be found in ChEMBL document CHEMBL5291721, “A preclinical secondary pharmacology resource illuminates target-adverse drug reaction associations of marketed drugs” (Nat Commun, 2023).

The target of assay [1] is Vasopressin V2 receptor (Homo sapiens, UniProt P30518).
Assay [2] deals with T1, Amine oxidase [flavin-containing] A (Homo sapiens, UniProt P21397).
T1 sequence (P21397 whole entry): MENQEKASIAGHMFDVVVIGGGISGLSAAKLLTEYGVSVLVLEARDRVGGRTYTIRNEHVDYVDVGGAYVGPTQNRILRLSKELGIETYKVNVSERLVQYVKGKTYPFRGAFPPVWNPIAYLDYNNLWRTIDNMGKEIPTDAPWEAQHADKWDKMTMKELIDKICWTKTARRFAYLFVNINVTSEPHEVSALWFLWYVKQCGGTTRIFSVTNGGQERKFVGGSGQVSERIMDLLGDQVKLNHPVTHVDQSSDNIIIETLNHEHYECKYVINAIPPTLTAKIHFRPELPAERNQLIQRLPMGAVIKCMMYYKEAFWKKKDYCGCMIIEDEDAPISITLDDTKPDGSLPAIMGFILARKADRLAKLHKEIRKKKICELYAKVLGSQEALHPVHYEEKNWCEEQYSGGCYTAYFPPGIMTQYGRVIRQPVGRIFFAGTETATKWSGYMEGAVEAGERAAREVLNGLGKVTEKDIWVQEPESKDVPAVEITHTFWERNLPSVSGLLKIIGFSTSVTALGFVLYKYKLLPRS
Type of assay: functional.

Assay [3] deals with Sodium-dependent noradrenaline transporter (Homo sapiens, UniProt P23975).
Assay [4] addresses Motilin receptor (Homo sapiens, UniProt O43193).
Assay [5] has as its target T2, 5-hydroxytryptamine receptor 1A (Homo sapiens, UniProt P08908).
T2 sequence (P08908 whole entry): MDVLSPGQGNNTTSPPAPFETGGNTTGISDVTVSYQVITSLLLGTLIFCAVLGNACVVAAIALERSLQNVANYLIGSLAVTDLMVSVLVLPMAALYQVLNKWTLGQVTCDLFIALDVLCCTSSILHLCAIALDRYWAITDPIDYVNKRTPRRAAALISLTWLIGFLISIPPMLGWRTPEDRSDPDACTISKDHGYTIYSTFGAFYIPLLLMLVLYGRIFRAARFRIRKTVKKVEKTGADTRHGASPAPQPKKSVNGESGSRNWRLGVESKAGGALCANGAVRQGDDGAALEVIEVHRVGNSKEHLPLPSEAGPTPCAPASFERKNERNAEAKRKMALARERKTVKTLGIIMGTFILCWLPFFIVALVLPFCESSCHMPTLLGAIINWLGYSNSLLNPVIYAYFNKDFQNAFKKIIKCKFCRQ
Type of assay: functional, cell-based.

Assay [6] concerns the target T3, Neuropeptide Y receptor type 1 (Homo sapiens, UniProt P25929).
T3 sequence (P25929 whole entry): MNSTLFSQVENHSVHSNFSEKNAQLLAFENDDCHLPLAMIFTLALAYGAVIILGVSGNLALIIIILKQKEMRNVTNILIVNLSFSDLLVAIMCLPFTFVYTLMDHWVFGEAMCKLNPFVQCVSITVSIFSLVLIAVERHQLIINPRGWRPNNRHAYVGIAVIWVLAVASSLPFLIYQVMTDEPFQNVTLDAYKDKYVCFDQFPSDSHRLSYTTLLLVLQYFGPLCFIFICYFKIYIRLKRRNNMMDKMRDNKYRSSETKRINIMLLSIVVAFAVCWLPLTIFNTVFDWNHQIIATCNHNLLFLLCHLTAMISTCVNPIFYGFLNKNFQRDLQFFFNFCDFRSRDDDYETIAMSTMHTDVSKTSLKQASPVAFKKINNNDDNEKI
To be noted: read-out: AC50.

Assay [7] concerns the target T4, Muscarinic acetylcholine receptor M2 (Homo sapiens, UniProt P08172).
T4 sequence (P08172 whole entry): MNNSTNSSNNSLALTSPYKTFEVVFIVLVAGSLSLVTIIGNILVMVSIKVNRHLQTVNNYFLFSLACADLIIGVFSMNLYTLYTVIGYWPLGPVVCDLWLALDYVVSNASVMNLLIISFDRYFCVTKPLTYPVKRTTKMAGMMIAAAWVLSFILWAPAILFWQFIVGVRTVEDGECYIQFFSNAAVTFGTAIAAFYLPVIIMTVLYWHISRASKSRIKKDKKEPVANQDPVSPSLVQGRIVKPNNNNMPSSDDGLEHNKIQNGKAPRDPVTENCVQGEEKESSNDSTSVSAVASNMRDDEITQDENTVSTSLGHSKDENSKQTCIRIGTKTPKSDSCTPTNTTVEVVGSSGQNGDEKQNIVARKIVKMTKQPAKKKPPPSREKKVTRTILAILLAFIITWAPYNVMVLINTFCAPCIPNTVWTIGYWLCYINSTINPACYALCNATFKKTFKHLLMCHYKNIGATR
The format is functional, cell-based.

Assay [8] deals with Melanocortin receptor 3 (Homo sapiens, UniProt P41968).
The target of assay [9] is D(3) dopamine receptor (Homo sapiens, UniProt P35462).
Assay [10] has as its target Gamma-aminobutyric acid receptor subunit alpha-1 (Rattus norvegicus, UniProt P62813). Type of assay: functional.
Assay [11] has as its target T5, Alpha-2C adrenergic receptor (Homo sapiens, UniProt P18825).
T5 sequence (P18825 whole entry): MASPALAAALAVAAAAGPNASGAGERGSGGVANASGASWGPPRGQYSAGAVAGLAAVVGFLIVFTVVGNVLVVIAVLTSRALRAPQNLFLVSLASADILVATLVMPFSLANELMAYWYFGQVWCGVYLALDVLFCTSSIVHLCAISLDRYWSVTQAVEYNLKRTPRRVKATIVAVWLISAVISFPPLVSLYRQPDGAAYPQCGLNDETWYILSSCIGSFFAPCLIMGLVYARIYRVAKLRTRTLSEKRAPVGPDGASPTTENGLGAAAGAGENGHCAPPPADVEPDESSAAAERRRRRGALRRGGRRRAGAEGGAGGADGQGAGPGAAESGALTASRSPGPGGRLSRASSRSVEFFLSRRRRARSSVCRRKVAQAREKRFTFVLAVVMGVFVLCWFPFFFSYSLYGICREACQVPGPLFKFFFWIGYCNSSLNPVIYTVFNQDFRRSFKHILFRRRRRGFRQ
The format is functional.

Where only a bound is given, the exact number is not on record here.
Further: assay procedure not described here.

Gamma-aminobutyric acid receptor subunit alpha-1, sequence (P62813 whole entry): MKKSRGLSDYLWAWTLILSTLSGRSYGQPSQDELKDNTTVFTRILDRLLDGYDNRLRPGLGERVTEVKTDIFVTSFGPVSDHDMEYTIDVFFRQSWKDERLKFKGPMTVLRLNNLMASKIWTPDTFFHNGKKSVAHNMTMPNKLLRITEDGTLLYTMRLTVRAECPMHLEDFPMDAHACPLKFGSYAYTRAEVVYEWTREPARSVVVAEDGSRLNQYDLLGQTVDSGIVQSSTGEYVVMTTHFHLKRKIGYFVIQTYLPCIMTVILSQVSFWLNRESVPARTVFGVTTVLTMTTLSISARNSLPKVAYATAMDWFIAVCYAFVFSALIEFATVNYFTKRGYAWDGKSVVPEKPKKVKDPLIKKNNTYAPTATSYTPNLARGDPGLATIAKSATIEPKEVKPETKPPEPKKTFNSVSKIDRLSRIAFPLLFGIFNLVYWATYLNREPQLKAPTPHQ
Melanocortin receptor 3, sequence (P41968 whole entry): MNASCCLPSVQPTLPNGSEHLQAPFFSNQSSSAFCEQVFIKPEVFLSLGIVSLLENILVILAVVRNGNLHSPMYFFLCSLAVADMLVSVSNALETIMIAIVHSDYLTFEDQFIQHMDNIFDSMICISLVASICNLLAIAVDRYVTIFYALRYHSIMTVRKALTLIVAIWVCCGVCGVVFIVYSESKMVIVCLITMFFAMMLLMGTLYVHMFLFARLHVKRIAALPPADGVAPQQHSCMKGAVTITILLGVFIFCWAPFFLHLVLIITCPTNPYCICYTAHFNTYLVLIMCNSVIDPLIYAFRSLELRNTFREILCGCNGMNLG
Sodium-dependent noradrenaline transporter, sequence (P23975 whole entry): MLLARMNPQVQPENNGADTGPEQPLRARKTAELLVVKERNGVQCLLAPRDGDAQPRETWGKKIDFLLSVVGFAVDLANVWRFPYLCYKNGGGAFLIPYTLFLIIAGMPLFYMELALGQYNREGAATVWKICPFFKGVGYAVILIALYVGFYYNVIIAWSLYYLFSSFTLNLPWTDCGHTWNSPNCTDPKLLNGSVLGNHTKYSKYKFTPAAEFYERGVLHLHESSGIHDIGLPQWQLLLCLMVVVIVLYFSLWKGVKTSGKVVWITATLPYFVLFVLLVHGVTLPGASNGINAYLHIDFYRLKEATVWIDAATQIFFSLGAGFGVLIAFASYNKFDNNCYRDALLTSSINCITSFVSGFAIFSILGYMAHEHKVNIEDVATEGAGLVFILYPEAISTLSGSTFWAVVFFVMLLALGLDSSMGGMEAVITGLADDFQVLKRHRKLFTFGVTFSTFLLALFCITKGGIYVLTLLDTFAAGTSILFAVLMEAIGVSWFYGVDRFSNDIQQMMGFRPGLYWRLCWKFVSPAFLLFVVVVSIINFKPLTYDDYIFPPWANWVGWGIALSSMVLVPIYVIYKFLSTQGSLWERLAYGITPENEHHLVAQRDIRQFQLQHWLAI
Vasopressin V2 receptor, sequence (P30518 whole entry): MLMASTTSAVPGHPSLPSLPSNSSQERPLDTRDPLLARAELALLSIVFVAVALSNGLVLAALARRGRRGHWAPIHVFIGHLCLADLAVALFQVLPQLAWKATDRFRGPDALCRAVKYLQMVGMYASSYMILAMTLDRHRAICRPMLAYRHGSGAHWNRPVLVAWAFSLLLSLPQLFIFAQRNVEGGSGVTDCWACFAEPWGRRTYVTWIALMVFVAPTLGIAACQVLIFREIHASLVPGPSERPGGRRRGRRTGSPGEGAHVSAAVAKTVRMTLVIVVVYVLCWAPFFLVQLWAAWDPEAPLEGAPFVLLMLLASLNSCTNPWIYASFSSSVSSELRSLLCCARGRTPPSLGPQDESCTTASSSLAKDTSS
Motilin receptor, sequence (O43193 whole entry): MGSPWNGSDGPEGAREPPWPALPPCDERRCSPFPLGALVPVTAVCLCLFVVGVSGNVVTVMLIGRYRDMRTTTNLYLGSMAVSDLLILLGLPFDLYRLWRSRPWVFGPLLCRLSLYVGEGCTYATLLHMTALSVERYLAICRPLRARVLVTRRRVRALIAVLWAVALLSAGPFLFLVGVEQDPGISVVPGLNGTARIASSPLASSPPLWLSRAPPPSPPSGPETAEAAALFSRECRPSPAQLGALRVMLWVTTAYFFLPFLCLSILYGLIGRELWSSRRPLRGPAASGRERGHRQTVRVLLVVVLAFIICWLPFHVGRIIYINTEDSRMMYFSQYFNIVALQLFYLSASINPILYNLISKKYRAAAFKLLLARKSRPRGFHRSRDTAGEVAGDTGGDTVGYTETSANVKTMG
D(3) dopamine receptor, sequence (P35462 whole entry): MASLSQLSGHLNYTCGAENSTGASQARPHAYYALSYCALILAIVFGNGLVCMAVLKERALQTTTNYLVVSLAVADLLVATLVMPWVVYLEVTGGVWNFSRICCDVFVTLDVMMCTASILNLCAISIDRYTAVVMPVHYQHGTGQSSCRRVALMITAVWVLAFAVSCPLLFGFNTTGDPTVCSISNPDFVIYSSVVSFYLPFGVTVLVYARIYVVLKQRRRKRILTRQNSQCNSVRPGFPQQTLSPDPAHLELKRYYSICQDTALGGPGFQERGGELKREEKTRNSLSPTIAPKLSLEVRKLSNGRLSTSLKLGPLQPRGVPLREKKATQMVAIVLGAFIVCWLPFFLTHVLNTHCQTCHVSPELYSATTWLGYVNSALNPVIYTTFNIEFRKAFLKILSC

Take `CC(=O)SC[C@@H](C)C(=O)N1CCC[C@H]1C(=O)N[C@@H](Cc1ccccc1)C(=O)O`: the AC50 in [1], in assay [2], in assay [3], in assay [4], in assay [5] and in assay [6] was > 30 µM each time. Moreover, the AC50 in [7], in assay [8], in assay [9], in [10] and in assay [11] was > 30 µM each time.

Regarding `NC(=O)CN1CCCC1=O`, the AC50 in assay [1], in [2], in assay [3], in assay [4], in [5] and in assay [6] was > 30 µM in each case. Further, the half-maximal activity concentration (AC50) in assay [7], in [8], in assay [9], in [10] and in [11] was > 30 µM in each case.

In the case of `C[N@+]1(CCF)[C@@H]2CC[C@H]1C[C@@H](OC(=O)C(O)(c1ccccc1)c1ccccc1)C2`, the AC50 in assay [1], in assay [2], in assay [3], in [4], in assay [5] and in assay [6] was > 30 µM in each case. In addition, the AC50 in assay [7], in [8], in [9], in assay [10] and in assay [11] was > 30 µM each time.

Consider `CC(=O)O[C@H](CC(=O)[O-])C[N+](C)(C)C` [ACETYLCARNITINE], for which the AC50 in assay [1], in [3], in assay [4], in [5], in assay [6] and in [7] was > 30 µM throughout. In addition, the AC50 in assay [8], in assay [9], in [10] and in assay [11] was > 30 µM in each case.

As for `Cn1c(=O)cc(N2CCC[C@@H](N)C2)n(Cc2ccccc2C#N)c1=O` [ALOGLIPTIN], the AC50 (in general, the concentration giving half of the maximal activity seen) in [1] was > 30 µM; in [3], > 10 µM; in assay [4] it was > 10 µM; in [6] it was > 30 µM; in [8], > 30 µM; in assay [9], > 10 µM. Further, the AC50 in [10] and in [11] was > 10 µM each time.

As to `CCN1CCCC1CNC(=O)c1cc(S(=O)(=O)CC)c(N)cc1OC` (stereo unspecified) [AMISULPRIDE], the AC50 in assay [1], in [2], in assay [3], in [5], in assay [6] and in [7] was > 30 µM throughout. In addition, the figures for the AC50 in [8], in assay [10] and in assay [11] were > 30 µM, > 30 µM and 0.71 µM, respectively.

For the molecule `O=C(O)CCNC(=O)c1ccccc1` [BETAMIPRON], the AC50 in [1], in assay [2], in assay [3], in [4], in assay [5] and in [6] was > 30 µM throughout. Besides, the AC50 in [7], in assay [8], in assay [9], in [10] and in assay [11] was > 30 µM in each case.

`COc1cc2ncnc(Nc3ccc(F)c(Cl)c3)c2cc1NC(=O)/C=C/CN1CCCCC1` [DACOMITINIB ANHYDROUS]: the AC50 is > 30 µM in assay [2]; 14 µM in assay [3]; > 30 µM in [7]; 27 µM in assay [8]; 21 µM in assay [11].

Turning to `CC(=O)[C@]1(O)Cc2c(O)c3c(c(O)c2[C@@H](O[C@H]2C[C@H](N)[C@H](O)[C@H](C)O2)C1)C(=O)c1ccccc1C3=O` [IDARUBICIN], the AC50 was > 10 µM in [1]; > 30 µM in assay [2]; 8.7 µM in [3]; > 10 µM in assay [4]; > 10 µM in [6]; 17 µM in assay [9]. Also, the AC50 in [10] was > 30 µM.

As for `O=C(O)c1ccccc1Nc1cc(Cl)ccc1C(=O)O` [LOBENZARIT], the AC50 in [1], in assay [3], in [4], in assay [5], in assay [6] and in [7] was > 30 µM in each case. The AC50 in assay [8], in assay [9], in assay [10] and in assay [11] was > 30 µM throughout.

With `COc1ccc(-c2noc(CC(=O)O)c2-c2ccc(OC)cc2)cc1` [MOFEZOLAC], the AC50 in [1], in assay [3], in assay [4], in assay [5], in assay [6] and in assay [7] was > 30 µM each time. Also, the AC50 in [8], in assay [9], in assay [10] and in assay [11] was > 30 µM throughout.

In the case of `CN(C(=O)c1c(O)c2ccccc2n(C)c1=O)c1ccccc1` [ROQUINIMEX], the AC50 in assay [2], in assay [3], in assay [8] and in assay [11] was > 30 µM throughout.

In the case of `OCc1cc(C(O)CNCCCCCCOCCCCc2ccccc2)ccc1O` (stereo unspecified) [SALMETEROL], the AC50 in assay [1] is > 30 µM; in [2], > 10 µM; in assay [3] it was 4.3 µM; in assay [4], > 10 µM; in assay [5], 5.4 µM; in assay [6] it was > 30 µM. Also, the concentration at half-maximal activity (AC50) in [8] was > 30 µM; in assay [9] it was 8.9 µM; in assay [10] it was > 10 µM; in assay [11] it was > 10 µM.

As to `Cn1cnc2c(F)c(Nc3ccc(Br)cc3Cl)c(C(=O)NOCCO)cc21` [SELUMETINIB], the AC50 in assay [2] was > 10 µM; in assay [3], > 30 µM; in [8], > 30 µM; in assay [11], > 10 µM.
